Experimental data taken from patent publication US10913780B2, “Conjugates, their compositions, their uses, and their methods of making” (THE ADMINISTRATORS OF THE TULANE EDUCATIONAL FUND, priority 2016, dated 2021).
Bridge positions count the residues as written; N and C are the ends. Square brackets hold non-standard residues; d marks the D form. * marks the point of attachment. 4‑mercaptophenylacetyl = O=C(Cc1ccc(S)cc1)*; Nle = CCCC[C@H](N)C(=O)O

System: activated human T-cells (Jurkat)
Experiment: Inhibition of IL-2 release from a culture of activated human T-cells (Jurkat)
Type: cell-based
Details: for inhibition of IL-2 release: Jurkat cells stimulated with lectin and Phorbol, overnight, potency compared with tacrolimus (FK-506); for effect on IL-2 release in the presence of increasing amounts of lanreotide: large excess of the somatostatin type 2 agonist lanreotide
Description: Cells were harvested, washed twice, and re-suspended in serum-free medium at a cell density of 4×10^6 cells/ml. Fifty μl of cell suspension was then added to each well of 96-well plates followed by 50 μl of tested compounds at different concentration (4×) for 1 hour at 37° C. The cells were stimulated to release IL-2 by adding 50 μl of lectin in PBS (10 μg/ml) and 50 μl of Phorbol in DMSO (100 ng/ml) to each well and continuing overnight incubation. The plates were centrifuged for 10 min at 1500 rpm and supernatants harvested for IL-2 assay using kits purchased from R&D Systems (Minneapolis, Minn.) and following the experimental directions provided.

Compound	inhibition of IL-2 release	inhibition of IL-2 release (listed as 32-thiol analog of tacrolimus)	inhibition of IL-2 release (listed as tacrolimus-32-SH)	effect on IL-2 release in the presence of increasing amounts of lanreotide	effect on IL-2 release in the presence of increasing amounts of lanreotide (listed as tacrolimus-32-SH-somatostatin)
C=CC[C@@H]1/C=C(\C)C[C@H](C)C[C@H](OC)[C@H]2O[C@@](O)(C(=O)C(=O)N3CCCC[C@H]3C(=O)O[C@H](/C(C)=C/[C@@H]3CC[C@@H](O)[C@H](OC)C3)[C@H](C)[C@@H](O)CC1=O)[C@H](C)C[C@@H]2OC [Tacrolimus, reference compound]	potent inhibitor				
C=CC[C@@H]1/C=C(\C)C[C@H](C)C[C@H](OC)[C@H]2O[C@@](O)(C(=O)C(=O)N3CCCC[C@H]3C(=O)O[C@H](/C(C)=C/[C@@H]3CCC(S)[C@H](OC)C3)[C@H](C)[C@@H](O)CC1=O)[C@H](C)C[C@@H]2OC (stereo partly drawn) [tacrolimus-32-thiol, Tacrolimus-32-Thiol]		virtually equipotent with the parent compound	equivalent potencies		
Example 10: Tacrolimus-32-thiol linked by a disulfide bond (4-mercaptophenylacetic acid) to the cyclized somatostatin analog peptide of Example 9 ({tacrolimus‑32‑thiol (disulfide)-4‑mercaptophenylacetyl}-[dS]S[dS]S[dS][Nle][dY][dS]CF[dW]KTCT-NH2; disulfide 9-14)	virtually equipotent			blocked the IL-2 release inhibiting capability	Blockade of biological activity
